According to PubChem BioAssay (NCI):
Several values for one entry are separate records, joined by “and”; a condition that tells them apart may be missing. Equal entries are not always repeated.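 How tested: cells in 96-well plates exposed to compound for 48 hours at five concentrations. Abbreviation: GI50, concentration required for 50% inhibition of growth. TGI is the concentration that stops growth completely.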

Key:
Test in all cases: growth of human tumour cells (NCI), 48 h
[1] = tested on: NCI-H226 lung
[2] = tested on: SF-295 CNS
[3] = tested on: SK-MEL-5 melanoma
[4] = tested on: KM12 colon
[5] = tested on: OVCAR-3 ovarian
[6] = tested on: UO-31 renal
[7] = tested on: HS 578T breast
[8] = tested on: SF-268 CNS
[9] = tested on: T-47D breast
[10] = tested on: BT-549 breast

| Structure (SMILES) | TGI [1] | TGI [2] | TGI [3] | TGI [4] [µM] | TGI [5] [µM] | TGI [6] | GI50 [1] [µM] | GI50 [2] [µM] | GI50 [7] [µM] | TGI [7] [µM] | GI50 [8] [µM] | TGI [8] | GI50 [3] | GI50 [4] [µM] | GI50 [9] [µM] | TGI [9] [µM] | GI50 [5] [µM] | GI50 [6] [µM] | GI50 [10] [µM] | TGI [10] [µM] |
| --- | --- | --- | --- | --- | --- | --- | --- | --- | --- | --- | --- | --- | --- | --- | --- | --- | --- | --- | --- | --- |
| C#CCNC(=O)NCCCCC(NC(=O)OCc1ccccc1)C(=O)OCc1ccccc1 (stereo not given) | > 100 µM | > 100 µM | > 100 µM | 69.8 | > 100 | > 72.3 µM | – | – | – | – | – | – | – | – | – | – | – | – | – | – |
| C=C/C(C)=C/C[C@]1(C)[C@H](C)[C@@H](OC(=O)CCC)[C@H](O)[C@@]23C(=C[C@H](OC)C[C@@H]12)[C@@H](OC(=O)CCC)O[C@H]3OC(C)=O | 1.34 µM | 2.48 µM | 2.03 µM | 1.96 | 0.4 | 0.586 µM | 0.38 | 0.992 | 1.13 | 3.38 | 1.58 | 3.25 µM | 0.704 µM | 0.55 | 0.36 | 1.71 | 0.191 | 0.212 | 1.11 | 2.75 |
| O=S1(=O)N(Cc2ccccc2)[C@@H](Cc2ccccc2)[C@H](O)[C@H](O)[C@H](Cc2ccccc2)N1Cc1ccccc1 | 6.17 µM | 5.68 µM | 5.8 µM | 5.84 | 6.07 | 5.96 µM | 3.04 | 2.62 | 3.27 | 8.38 | 3.44 | 8.03 µM | 3.05 µM | 2.94 | 3.95 | 10.2 | 2.9 | 2.73 | 2.65 | 5.53 |
| NS(=O)(=O)c1ccc(N2N=C3c4ccccc4CC3C2c2cccs2)cc1 (stereo not given) | – | 34.4 µM | 43.5 µM | 57.2 | 47.8 | > 100 µM | – | 16.2 | 28.7 | 76.9 | > 100 | > 100 µM | 18 µM | 15.7 | 66.9 | > 100 | 24.8 | 39.4 | 19.3 | 51.7 |
| O=c1nc(-c2ccccc2)cc(CC(O)c2ccc(Cl)c(Cl)c2)[nH]1 (stereo not given) | > 100 µM | > 100 µM | > 100 µM | > 100 | > 100 | 99.3 µM | – | – | – | – | – | > 100 µM | – | – | – | – | – | – | – | – |
| COC(=O)C1=C(CS(=O)c2ccc([N+](=O)[O-])cc2[N+](=O)[O-])C2C=CC1C2 (stereo not given) | 98.4 µM | > 100 µM | > 100 µM | > 100 | 66.8 | 45.9 µM | – | – | – | – | – | > 100 µM | – | – | – | – | – | – | – | – |
| CCc1cccc(C)c1N1C(=O)C(=O)C(c2nc3ccccc3o2)C(=O)C1=O | > 100 µM | > 100 µM | > 100 µM | > 100 | > 100 | > 100 µM | – | – | – | – | – | > 100 µM | – | – | – | – | – | – | – | – |
| N/C(=N\NS(=O)(=O)c1ccccc1)Oc1ccc(Br)cc1Br | > 100 µM | > 100 µM | > 100 µM | > 100 | > 100 | > 100 µM | – | – | – | – | – | > 100 µM | – | – | – | – | – | – | – | – |
| CC1(c2cc3c(cc2Br)OCO3)SCCCS1 | > 100 µM | > 100 µM | 51 µM | > 100 | > 100 | 85.1 µM | – | – | – | – | – | > 100 µM | – | – | – | – | – | – | – | – |
| CCc1ccccc1NC(=O)/C=C/c1ccccc1 | > 100 µM | > 100 µM | > 100 µM | > 100 | > 100 | – | – | – | – | > 100 | – | > 100 µM | – | – | – | > 100 | – | – | – | > 100 |
| COC(=O)CCC12CCC(=O)C1[C@@H](C(=O)OC)C[C@H]2C(=O)OC (stereo not given in full) | > 100 µM | > 100 µM | > 100 µM | > 100 | > 100 | > 100 µM | – | – | – | – | – | > 100 µM | – | – | – | – | – | – | – | – |
| COc1ccc(C(=O)c2cc3c(N)c(C(=O)Nc4ccccc4)sc3nc2C)cc1 | > 100 µM | > 100 µM | 10.6 µM | > 100 | – | > 100 µM | 11.1 | 0.639 | 0.331 | 67.5 | 3.65 | > 100 µM | 0.459 µM | 0.539 | 0.74 | > 100 | – | 2.64 | 38.6 | > 100 |
| Cc1ccc(Oc2ccccc2N)cc1 | – | > 100 µM | 26.2 µM | > 100 | 55 | 44.9 µM | – | – | – | – | – | > 100 µM | – | – | – | – | – | – | – | – |
| C[Si](C)(C)C(CCCCSc1ccccc1)(Sc1ccccc1)Sc1ccccc1 | – | > 100 µM | > 100 µM | > 100 | – | > 100 µM | – | – | – | – | – | > 100 µM | – | – | – | – | – | – | – | – |
| CCc1cccc(C)c1NC(=O)CCc1nnc2s/c(=C\c3cccc4ccccc34)c(=O)n12 | > 100 µM | > 100 µM | > 100 µM | > 100 | > 100 | > 100 µM | – | – | – | – | – | > 100 µM | – | – | – | – | – | – | – | – |
| Cc1c(C(=O)/C=C/C=C/c2ccccc2)[n+](=O)c2ccccc2n1[O-] | > 100 µM | > 100 µM | 44.4 µM | 43.7 | 83.3 | > 100 µM | – | – | – | – | – | > 100 µM | – | – | – | – | – | – | – | – |
| CC(C)(O)/C=C/C(=O)[C@](C)(O)[C@H]1[C@H](O)C[C@@]2(C)[C@@H]3CC=C4[C@@H](C[C@H](O)C(=O)C4(C)C)[C@]3(C)C(=O)C[C@]12C | 0.642 µM and 0.913 µM | 0.629 µM and 2.61 µM | 0.682 µM and 2.44 µM | 25 | 1.02 | 0.396 µM and 0.519 µM | 0.174 | 0.264 | – | – | – | 0.631 µM and 0.807 µM | 0.0565 µM and 0.11 µM | 0.948 | – | – | 0.125 | 0.206 | – | – |
| Clc1cccc(N2CCN(CCCN3CCc4c([nH]c5ccccc45)C3c3cccnc3)CC2)c1 (stereo not given) | 35.8 µM | – | 24.9 µM | – | 22.7 | 18.5 µM | – | – | – | – | – | – | 6.79 µM | – | – | – | 9.24 | – | – | – |
| COC(=O)C1C(=O)CC2CCCCC21 (stereo not given) | > 100 µM | – | > 100 µM | > 100 | > 100 | > 100 µM | – | – | – | – | – | > 100 µM | – | – | – | – | – | – | – | – |
| COC(=O)C12CC(NC(=O)c3csc([C@@H](C[C@H](C(C)C)N(C)C(=O)[C@@H](NC(=O)[C@H]4CCCCN4C)C4CC4)OC(C)=O)n3)(C1)C2 | > 16.7 µM | > 16.7 µM | 0.449 µM | > 16.7 | – | > 16.7 µM | 0.582 | 0.0422 | 0.0169 | > 16.7 | 0.023 | > 16.7 µM | 0.023 µM | 0.0363 | – | – | 0.0059 | 0.614 | 0.00766 | 2.72 |
